Measurements from patent publication US20190071416A1, “COMPOUNDS FOR TREATMENT OF CANCER AND EPIGENETICS” (Agency For Science, Technology and Research, priority 2015, published 2019).

Target: T1, SMYD3 (Homo sapiens, UniProt Q9H7B4)
T1 sequence (Q9H7B4 1-428): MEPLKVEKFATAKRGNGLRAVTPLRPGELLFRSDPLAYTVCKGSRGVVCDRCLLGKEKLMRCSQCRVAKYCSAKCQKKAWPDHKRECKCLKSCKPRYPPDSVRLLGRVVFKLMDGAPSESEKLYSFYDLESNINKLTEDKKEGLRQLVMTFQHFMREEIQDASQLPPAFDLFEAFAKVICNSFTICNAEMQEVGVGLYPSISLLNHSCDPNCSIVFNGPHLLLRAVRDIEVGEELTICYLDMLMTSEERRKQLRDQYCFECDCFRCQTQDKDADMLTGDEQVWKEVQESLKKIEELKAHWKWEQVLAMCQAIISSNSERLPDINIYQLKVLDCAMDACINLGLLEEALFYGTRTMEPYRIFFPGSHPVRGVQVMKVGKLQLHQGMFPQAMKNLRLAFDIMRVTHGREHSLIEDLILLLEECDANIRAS
Assay: SMYD3 biochemical assay (MTase-Glo, MAP3K2 peptide substrate)
Conditions: not given
In short: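 Methylation of MAP3K2 peptide (10 µM final) with SAM (1.0 µM final) by SMYD3, 30 min at room temperature. SAH formed was enzymatically converted to ATP and detected as luminescence with MTase-Glo reagents; IC50 by non-linear regression.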

| activity against SMYD3 | SMILES |
| --- | --- |
| inactive | NC(=O)C1CCN(CC(=O)Nc2ccc(Br)cc2)CC1 [BCI-121, reference compound] |

Same assay, conditions: Table 3; MTase assay, MAP3K2 peptide substrate; read-out: IC50

| IC50 [nM] | SMILES |
| --- | --- |
| 95 | CCCOC(=O)N1CCN(C(=O)c2ccc3c(Cl)c4c(nc3c2)CC(c2ccccn2)CC4)[C@@H](C)C1 (stereo partly drawn) [A086, Propyl (3S)-4-(9-chloro-6-(pyridin-2-yl)-5,6,7,8-tetrahydroacridine-3-carbonyl)-3-methylpiperazine-1-carboxylate] |
| 350 | CCCOC(=O)N1CCN(C(=O)c2ccc3c(Cl)c4c(nc3c2)CC(CNC(=N)N)CC4)[C@@H](C)C1 (stereo partly drawn) [A090, Propyl (3S)-4-(9-chloro-6-(guanidinomethyl)-5,6,7,8-tetrahydroacridine-3-carbonyl)-3-methylpiperazine-1-carboxylate] |
| 53 | CCCOC(=O)N1CCN(C(=O)c2ccc3c(Cl)cc(-c4ccc5[nH]ncc5c4)nc3c2)CC1 [B128, Propyl 4-(4-chloro-2-(1H-indazol-5-yl)quinoline-7-carbonyl)piperazine-1-carboxylate] |
| 3670 | CCCOC(=O)N1CCN(C(=O)c2ccc3c(Cl)cc(-c4cnc(C)s4)nc3c2)CC1 [B166, Propyl 4-(4-chloro-2-(2-methylthiazol-5-yl)quinoline-7-carbonyl)piperazine-1-carboxylate] |
| 230 | CCCOC(=O)N1CCN(C(=O)c2ccc3c(Cl)cc(-c4cnn(C)c4)nc3c2)[C@@H](C)C1 [B219, Propyl (S)-4-(4-chloro-2-(1-methyl-1H-pyrazol-4-yl)quinoline-7-carbonyl)-3-methylpiperazine-1-carboxylate] |
| 120 | CCCOC(=O)N1CCN(C(=O)c2ccc3c(Cl)c(C)c(-c4cccc(N)c4)nc3c2)C[C@H]1C [B056, Propyl (R)-4-(2-(3-aminophenyl)-4-chloro-3-methylquinoline-7-carbonyl)-2-methylpiperazine-1-carboxylate] |
| 170 | CCCOC(=O)N1CCN(C(=O)c2ccc3c(Cl)c4c(nc3c2)CC(c2ccc(F)cn2)CC4)C[C@@H]1C (stereo partly drawn) [A097, Propyl (2S)-4-(9-chloro-6-(5-fluoropyridin-2-yl)-5,6,7,8-tetrahydroacridine-3-carbonyl)-2-methylpiperazine-1-carboxylate] |
| 75 | CCCOC(=O)N1CCN(C(=O)c2ccc3c(Cl)cc(-c4ccc(O)c(F)c4)nc3c2)C[C@@H]1C [B192, Propyl (S)-4-(4-chloro-2-(3-fluoro-4-hydroxyphenyl)quinoline-7-carbonyl)-2-methylpiperazine-1-carboxylate] |
| 2100 | CCCOC(=O)N1CCN(C(=O)c2ccc3c(Cl)cc(-c4cccc(CC)c4)nc3c2)CC1 [B067, Propyl 4-(4-chloro-2-(3-ethylphenyl)quinoline-7-carbonyl)piperazine-1-carboxylate] |
| 52 | C[C@@H]1CN(C(=O)c2ccc3c(Cl)cc(-c4ccc(C(C)(C)O)cc4)nc3c2)CCN1C(=O)c1cn(C2CC2)nn1 [D006, (R)-(4-Chloro-2-(4-(2-hydroxypropan-2-yl)phenyl)quinolin-7-yl)(4-(1-cyclopropyl-1H-1,2,3-triazole-4-carbonyl)-3-methylpiperazin-1-yl)methanone] |
| 120 | CCCOC(=O)N1CCN(C(=O)c2ccc3c(Cl)c4c(nc3c2)CC(CCN(C)C)CC4)[C@H](C)C1 (stereo partly drawn) [A120, Propyl (3R)-4-(9-chloro-6-(2-(dimethylamino)ethyl)-5,6,7,8-tetrahydroacridine-3-carbonyl)-3-methylpiperazine-1-carboxylate] |
| 600 | CCCOC(=O)N1CCN(C(=O)c2ccc3c(Cl)cc(-c4ccc(C(=O)NCC)cc4)nc3c2)CC1 [B206, Propyl 4-(4-chloro-2-(4-(ethylcarbamoyl)phenyl)quinoline-7-carbonyl)piperazine-1-carboxylate] |
| 510 | CCCOC(=O)N1CCN(C(=O)c2ccc3c(Cl)c4c(nc3c2)CCC(CCN(C)C)C4)[C@@H](C)C1 (stereo partly drawn) [A082, Propyl (3S)-4-(9-chloro-7-(2-(dimethylamino)ethyl)-5,6,7,8-tetrahydroacridine-3-carbonyl)-3-methylpiperazine-1-carboxylate] |
| 100 | CCCOC(=O)N1CCN(C(=O)c2ccc3c(Cl)c4c(nc3c2)CC(c2ccncc2)CC4)[C@H](C)C1 (stereo partly drawn) [A093, Propyl (3R)-4-(9-chloro-6-(pyridin-4-yl)-5,6,7,8-tetrahydroacridine-3-carbonyl)-3-methylpiperazine-1-carboxylate] |
| 210 | CCCOC(=O)N1CCN(C(=O)c2ccc3c(Cl)c4c(nc3c2)CCC(CCN(C)C)C4)CC1 (stereo not drawn) [A075, Propyl 4-(9-chloro-7-(2-(dimethylamino)ethyl)-5,6,7,8-tetrahydroacridine-3-carbonyl)piperazine-1-carboxylate] |
| 160 | CNC(=O)c1ccc(-c2cc(Cl)c3ccc(C(=O)N4CCN(C(=O)OCCCF)[C@H](C)C4)cc3n2)cc1 [B233, 3-Fluoropropyl (R)-4-(4-chloro-2-(4-(methylcarbamoyl)phenyl)quinoline-7-carbonyl)-2-methylpiperazine-1-carboxylate] |

| IC50 [nM] | SMILES |
| --- | --- |
| 190 | CCCOC(=O)N1CCN(C(=O)c2ccc3c(Cl)c4c(nc3c2)CCCC4)[C@@H](C)C1 [A010, Propyl (S)-4-(9-chloro-5,6,7,8-tetrahydroacridine-3-carbonyl)-3-methylpiperazine-1-carboxylate] |
| 470 | CCCOC(=O)N1C2CCCC1CN(C(=O)c1ccc3c(Cl)cc(-c4ccccc4)nc3c1)C2 [B081, Propyl 3-(4-chloro-2-phenylquinoline-7-carbonyl)-3,9-diazabicyclo[3.3.1]nonane-9-carboxylate] |
| 1400 | CCCOC(=O)N1CCN(C(=O)c2ccc3c(Cl)cc(-c4ccc([N+](=O)[O-])cc4)nc3c2)CC1 [B072, Propyl 4-(4-chloro-2-(4-nitrophenyl)quinoline-7-carbonyl)piperazine-1-carboxylate] |
| 400 | CCCOC(=O)N1CCN(C(=O)c2ccc3c(Cl)cc(-c4ccc(-c5ccn[nH]5)cc4)nc3c2)CC1 [B135, Propyl 4-(2-(4-(1H-pyrazol-5-yl)phenyl)-4-chloroquinoline-7-carbonyl)piperazine-1-carboxylate] |
| 65 | CCCOC(=O)N1CCN(C(=O)c2ccc3c(Cl)cc(-c4ccc(-n5ccnc5)cc4)nc3c2)C[C@H]1C [B089, Propyl (R)-4-(2-(4-(1H-imidazol-1-yl)phenyl)-4-chloroquinoline-7-carbonyl)-2-methylpiperazine-1-carboxylate] |
| 58 | CN(C)Cc1cc(-c2cc(Cl)c3ccc(C(=O)N4CCN(C(=O)c5cn(C6CC6)nn5)CC4)cc3n2)ccc1F [E020, (4-Chloro-2-(3-((dimethylamino)methyl)-4-fluorophenyl)quinolin-7-yl)(4-(1-cyclopropyl-1H-1,2,3-triazole-4-carbonyl)piperazin-1-yl)methanone] |
| 340 | CCCOC(=O)N1CCN(C(=O)c2ccc3c(Cl)c4c(nc3c2)CC(c2ncccc2F)CC4)[C@H](C)C1 (stereo partly drawn) [A113, Propyl (3R)-4-(9-chloro-6-(3-fluoropyridin-2-yl)-5,6,7,8-tetrahydroacridine-3-carbonyl)-3-methylpiperazine-1-carboxylate] |
| 360 | CCCOC(=O)N1CCN(C(=O)c2ccc3c(Cl)cc(-c4ccc(C)nc4)nc3c2)C[C@H]1C [B177, Propyl (R)-4-(4-chloro-2-(6-methylpyridin-3-yl)quinoline-7-carbonyl)-2-methylpiperazine-1-carboxylate] |
| 330 | CCCOC(=O)N1CCN(C(=O)c2ccc3c(Cl)cc(-c4ccc(CF)cc4)nc3c2)[C@@H](C)C1 [B161, Propyl (S)-4-(4-chloro-2-(4-(fluoromethyl)phenyl)quinoline-7-carbonyl)-3-methylpiperazine-1-carboxylate] |
| 240 | CCCOC(=O)N1CCN(C(=O)c2ccc3c(Cl)cc(-c4ccc5nc(C)oc5c4)nc3c2)CC1 [B212, Propyl 4-(4-chloro-2-(2-methylbenzo[d]oxazol-6-yl)quinoline-7-carbonyl)piperazine-1-carboxylate] |
| 110 | CCCOC(=O)N1CCN(C(=O)c2ccc3c(Cl)c4c(nc3c2)CC(c2ccc(C)cn2)CC4)C[C@H]1C (stereo partly drawn) [A131, Propyl (2R)-4-(9-chloro-6-(5-methylpyridin-2-yl)-5,6,7,8-tetrahydroacridine-3-carbonyl)-2-methylpiperazine-1-carboxylate] |
| 3500 | C=CCCC(=O)N1CCN(C(=O)c2ccc3c(Cl)c4c(nc3c2)CCCC4)CC1 [A050, 1-(4-(9-Chloro-5,6,7,8-tetrahydroacridine-3-carbonyl)piperazin-1-yl)pent-4-en-1-one] |
| 2500 | CCCOC(=O)N1CCN(C(=O)c2ccc3c(Cl)cc(-c4cncc(C)c4)nc3c2)CC1 [B005, Propyl 4-(4-chloro-2-(5-methylpyridin-3-yl)quinoline-7-carbonyl)piperazine-1-carboxylate] |
| 220 | CCCOC(=O)N1CCN(C(=O)c2ccc3c(Cl)c4c(nc3c2)CC(CCN2CCCC2)CC4)CC1 (stereo not drawn) [A121, Propyl 4-(9-chloro-6-(2-(pyrrolidin-1-yl)ethyl)-5,6,7,8-tetrahydroacridine-3-carbonyl)piperazine-1-carboxylate] |
| 60 | CCCOC(=O)N1CCN(C(=O)c2ccc3c(Cl)cc(-c4cccc(CNC)c4)nc3c2)C[C@H]1C [B124, Propyl (R)-4-(4-chloro-2-(3-((methylamino)methyl)phenyl)quinoline-7-carbonyl)-2-methylpiperazine-1-carboxylate] |
| 3000 | CCCOC(=O)N1CCN(C(=O)c2ccc3c(Cl)c(C)c(C)nc3c2)CC1 [C003, Propyl 4-(4-chloro-2,3-dimethylquinoline-7-carbonyl)piperazine-1-carboxylate] |
